Series [1] deals with Urokinase-type plasminogen activator (Homo sapiens, UniProt P00749).
The nature of series [2]: Clearance in rat at 0.95 mg/kg, iv. More on the design: dose 0.95 mg/kg, route intravenous. The series is classed as ADME, organism-based. As to conditions: in vivo.
Series [3] is described as follows: Oral bioavailability in rat at 4.2 mg/kg. To be noted: in vivo. The series is classed as ADME, organism-based.
A short description of series [4]: Volume of distribution in rat at 0.95 mg/kg, iv. As to conditions: in vivo. The series is classed as ADME, organism-based. More on the design: dose 0.95 mg/kg, route intravenous.
Series [5] is described as follows: Dissociation constant, pKa of the compound. The series is classed as physicochemical.
Series [6] can be described thus: Half life in rat at 0.95 mg/kg, iv. The series is classed as ADME, organism-based. More on the design: dose 0.95 mg/kg, route intravenous. To be noted: in vivo.

The term IC50 denotes the midpoint of a concentration-inhibition curve. Usually clearance stands for a measure of how efficiently the substance is removed, as volume per time. A word on the bioavailability: it is the share of a dose that reaches the circulation, judged against a reference dose that is usually intravenous. The low end stands for little systemic uptake, the high end for much systemic uptake. As a reminder, the Vd is a proportionality between amount in the body and measured concentration, not a real space. As a reminder, the pKa is the pH at which an ionisable group is half protonated. High values mean a weaker acid or stronger base, low ones a stronger acid or weaker base. In general, half-life refers to the time in which the quantity being followed falls by half. Read a high half-life as slow decline.

For the molecule `CCOC(=O)N1CCN(C(=O)[C@H](Cc2cccc(C(=N)N)c2)NS(=O)(=O)c2c(C(C)C)cc(C(C)C)cc2C(C)C)CC1`, half-maximal inhibition in series [1] (IC50) was put at 410 nM.

In the case of `NC(N)=Nc1ncc(Cl)c2ccc(-c3cccc(C(=O)O)c3)cc12`, the midpoint of inhibition in series [1], the IC50, lay at 37 nM.

Regarding `CCOc1c(Cl)cc(N2CCCCC2)cc1NC(=O)c1cc(C)c(OC[C@@H](C)N)c(C)c1`, the IC50 in series [1] amounted to 460 nM.

As for `N=C(N)c1ccc(CNC(=O)[C@H](CO)NC(=O)[C@@H](CO)NS(=O)(=O)Cc2ccccc2)cc1`, the IC50 in series [1] is 20 nM.

In series [1], `NCCOc1c(Cl)cc(C(=O)Nc2ccccc2)cc1Cl` registered an IC50 of 35000 nM.

For `COc1ccccc1NC(=O)c1cc(Cl)c(OCCN)c(Cl)c1`, half-maximal inhibition in series [1] (IC50) was put at 23000 nM.

In series [1], `Cc1cc(C(=O)Nc2cccc(OC(C)C)c2)cc(C)c1OCCN` had an IC50 of 2700 nM.

In turn, `Cc1cc(C(=O)Nc2cc(OC(C)C)cc(OC(C)C)c2)cc(C)c1OCCN` returned an IC50 in series [1] of 72 nM.

In series [2], `CCOc1c(Cl)cc(N2CCCCC2)cc1NC(=O)c1cc(C)c(OCCN)c(C)c1` came in with a clearance of 43 mL/min/kg. In series [3], the bioavailability worked out at 60%. In series [4], the Vd is 27 L/kg. The molecule further displayed a pKa in series [5] of 8.75. In addition, the half-life in series [6] was 7.5 h.

Take `Cc1cc(C(=O)Nc2cc(F)cc(N3CCOCC3)c2)cc(C)c1OCCN`: the IC50 in series [1] was determined as 1600 nM.

The record behind these values is ChEMBL document CHEMBL1140718, “Fragment-based discovery of mexiletine derivatives as orally bioavailable inhibitors of urokinase-type plasminogen activator” (J Med Chem, 2008).
